Key:
calumenin = assay: Immunoblot of calumenin expression after siRNA transfection of MCF-7 cells; format: cell-based, human; settings: compared to mock and control siRNA, FIG. 2
Source text: To establish the importance of calumenin to the expression of the drug-resistant phenotype in MCF-7 cell lines, calumenin expression was silenced using RNAi. Briefly, the following siRNA duplexes targeting the human calumenin mRNA were designed and purchased either from Ambion (Austin, Tex.) or Invitrogen (Carlsbad, Calif.). The siRNA duplex sequences corresponding to nucleotides […] (REFSEQ ID NUMBER: NM_001428) targeting the start of the calumenin mRNA transcript were:
For a typical siRNA transfection, […] of the annealed siRNA duplex was mixed with 1.4 ml of Opti-MEM reagent (Invitrogen). In another tube, […] of Oligofectamine reagent (Invitrogen, Carlsbad, Calif.) was mixed with […] of Opti-MEM. The two solutions were combined and mixed gently by inversion and incubated for 20 min. at RT. […]
To determine the ability of cells to proliferate after they were transfected with […] or control siRNAs as indicated above, the cells were seeded the next day in a 96-well plate at 5×10^3 cells/well in quadruplicate. […] The resulting fluorescence was measured in a Wallac microplate reader (PerkinElmer, Inc., Boston, Mass.) using a 535 nm filter. […] The number of cells was determined by extrapolation from a standard curve.

MCF-7 cells [1] = assay: Apoptosis assay (Annexin V staining); format: cell-based, human; settings: FIG. 4
Method: This assay was performed to determine the number of cells that were susceptible to chemotherapeutic drugs following incubation with siRNAs. Cells transfected with siRNA were seeded in Lab-Tek 16-well chamber slides (Electron Microscopy Sciences, Hatfield, Pa.) at 10^4 cells/well 48 hrs post-transfection. Apoptosis was determined 16 hours later by annexin-V staining using the Annexin-V FLUOS kit (Roche, Ltd., Basel, CH) following the manufacturer's instructions. Slides were observed under a fluorescence microscope and images were taken using an Olympus digital camera and the Q-Capture software (QImaging, Burnaby, BC, CA).

MCF-7 cells [2] = assay: Phase contrast viability assay (cell morphology); format: cell-based, human; settings: calumenin-depleted MCF-7 cells; FIG. 3
[3] = system: hematological tumor cells; assay: Hematological tumors in MHC-matched mice; format: in vivo
Method: In order to determine whether targeting calumenin is useful in treating a preexisting cancerous condition, MHC-matched mice, 5 to 7 weeks old, receive a subcutaneous (s.c.) injection of 5×10^5 hematological tumor cells, and tumors are allowed to form. Tumor growth starting on the first day of treatment is measured by palpitation, and the volume of the xenograft is monitored every 4 days. Tumors are allowed to grow to a sufficient size (5.5 mm) for appropriate analysis of the effects of calumenin treatment on tumor sensitivity to chemotherapeutic drugs. Mice are then treated with a calumenin siRNA (3 μg daily for 16 days) designed to decrease the level of expression of calumenin. Control mice receive no treatment, treatment with taxol or doxorubicin alone (4 mg/kg daily) or treatment with control siRNA sequences that are not complementary to murine calumenin mRNA (3 μg daily for 16 days for each treatment) in combination with taxol or doxorubicin (4 mg/kg daily). Taxol and doxorubicin can be obtained commercially from Sigma Corp. (St. Louis, Mo.).
The animal's weight is measured every 4 days. Tumor growth starting on the first day of treatment is measured by palpitation and the volume of the xenograft is monitored every 4 days. The mice are anaesthetized and sacrificed when the mean tumor weight is over 1 g in the control group. Tumor tissue is excised from the mice and its weight is measured. Tumor weights from mice treated with the calumenin siRNA and chemotherapeutic drugs are compared to tumor weights from mice treated with control siRNA and chemotherapeutic drugs. Tumor cell count is determined by trypsinizing tumors in DMEM medium supplemented with 10% fetal bovine serum until cells are in free suspension. Cells are then transferred to 6-well plates for counting. Cell counts are compared. All experiments are performed in triplicate.
In order to determine whether targeting calumenin is useful in treating a preexisting cancerous condition, MHC-matched mice, 5 to 7 weeks old, receive an s.c. injection of 5×10^5 hematological tumor cells, and tumors are allowed to form. Tumor growth starting on the first day of treatment is measured by palpitation and the volume of the xenograft is monitored every 4 days. Tumors are allowed to grow to a sufficient size (5.5 mm) for appropriate analysis of the effects of calumenin treatment on tumor sensitivity to chemotherapeutic drugs. […]
The animal's weight is measured every 4 days. Tumor growth starting on the first day of treatment is measured and the volume of the xenograft is monitored every 4 days. […] Tumor tissue is excised from the mice and its weight is measured. […] Tumor cell count is determined by trypsinizing tumors in DMEM medium supplemented with 10% fetal bovine serum until cells are in free suspension. […]

Calumenin siRNA: siRNA duplex targeting human calumenin mRNA; sense 5′-GAAGGACCGUGUACAUCAU-3′ (SEQ ID NO: 1), anti-sense 5′-AUGAUGUACACGGUCCUUC-3′ (SEQ ID NO: 2), 3′TT overhangs (3' TT overhangs on both strands, further chemistry not given here)
calumenin expression (calumenin): significantly decreased
number of Annexin-V-positive cells (MCF-7 cells [1]; compared to cell population treated with control siRNA): substantially greater number
cell survival (MCF-7 cells [1]; compared to cells treated with siGLO control siRNA): decreased
cell morphology (MCF-7 cells [2]): more rounded cell morphology
prognosis (i.e., smaller tumor or fewer tumor cells) ([3]; composition vs only the targeting agent or only the chemotherapeutic drug): better prognosis
total cell number in tumors ([3]; hematological cancers, vs mice treated with control siRNA): lower
tumors by weight ([3]; hematological cancers, vs mice treated with control siRNA, 3 μg siRNA daily for 16 days): smaller
sensitivity of tumors to chemotherapeutic drug treatment regimes ([3]; hematological tumors in mice): increases

From patent US20070243548A1, “Calumenin-directed diagnostics and therapeutics for cancer and chemotherapeutic drug resistance” (priority 2006, published 2007)
